Measurements reported in patent US9073916B2, “Prodrug forms of kinase inhibitors and their use in therapy” (AUCKLAND UNISERVICES LIMITED, priority 2009, dated 2015).
pIC50: −log10 of the molar value. Like-named read-outs stand apart in the source and are kept apart here.

Tests used:
erbB1 [1] = molecular target: T1, erbB1 (Homo sapiens, UniProt P00533); experiment: Isolated enzyme inhibition (Invitrogen Z′-LYTE kinase assay); type: biochemical; settings: 10 μM ATP, duplicate
[2] = Steady state radiolytic reduction by the CO2.− radical with HPLC-MS; type: physicochemical
SKBR3 cells = experiment: Cellular growth inhibition (sulforhodamine B); type: cell-based, Human; settings: Table 3
SW620 cells = experiment: Cellular growth inhibition (sulforhodamine B); type: cell-based, Human; settings: Table 3
Method: Human A431, BT474, SKBR3, SKOV3, SW620, H1975 and HT29 carcinoma cells in log phase exponential growth in alpha minimal essential media (αMEM) containing 5% fetal bovine serum (FBS), were harvested by trypsinisation (1× trypsin/EDTA, Gibco Brl), counted, and seeded into 96 well plates (Nunc) at cell densities ranging from 800-1500 cells/well. Half of the cell samples were seeded into plates that were pre-equilibrated and held in an anoxic environment (90% N2, 5% H2, 5% CO2, 37° Q Anaerobic chamber, Coy Laboratory Products). […] At the end of this period the anoxic plates were recovered from the anaerobic camber and held under normoxia in a standard CO2 incubator (37° C.) for 20 hours. All plates were washed free of compound and cells were allowed to proliferate for a further 4 days in αMEM containing 5% FBS+antibiotics. Cells were fixed in trichloroacteic acid (30 min), washed and stained with sulforhodamine B (SRB, 60 min) prior to washing in acidified water. SRB was solubilised and absorption read at 450 nm to calculate cell densities. Inhibition of proliferation was calculated relative to untreated control wells.

[3] = Plasma and A431 tumour pharmacokinetics of compounds 11 and 20
Method: A small piece (˜100 mg) of tissue was placed in biopulveriser well (previously cooled in liquid nitrogen) and reduced to fine powder with a 2-3 strong blows to the stainless steel pestle. The frozen powder was collected in pre-weighed microcentrifuge tube (kept on dry ice). […] The microcentrifuge tubes were spun at 13,000 rpm for 10 min to precipitate the cell debris and proteins. […] The analytes were eluted using a gradient of 0.01% formic acid in acetonitrile (80%)-water (20%) mixture and 0.01% formic acid in water (100%) on Zorbax SB 018, rapid resolution HT 3.0×50 mm, 1.8 micron (Agilent) HPLC column with a flow rate of 0.6 ml/min.

Solubility by HPLC = settings: α-MEM cell culture medium
[4] = Hypoxia-selective reduction of prodrug 20 in cell free media; type: in vitro ADME; settings: cell free media containing 5% fetal calf serum, hypoxic
erbB1 [5] = molecular target: T1, erbB1; experiment: Cellular erbB1 inhibition: irreversibility wash-out assay in A431 cells; settings: 1 μM, 1 hour exposure, then EGF stimulation
A431 cells = experiment: Oxic and hypoxic cellular metabolism of prodrug 20; type: in vitro ADME, Human; settings: 10 uM prodrug
Method: (§1) A431 and SKOV3 cells were grown in a 175 flask and seeded at 40K, a density which gave an 80-90% confluent cell layer after 7 days growth. Cells were washed with PBS, harvested with 0.05% trypsin/EDTA, centrifuged at 1000 rpm for 5 mins at room temperature and re-suspended in a 1 mL of cell culture medium (α-MEM containing 10% FCS, 10 mM D-Glucose and 0.2 mM 2′-deoxycytidine). Cell numbers were determined with the Coulter counter and the appropriate number of cells was transferred to a new tube. 5×10^5 cells per well were plated into wells of a 24-well plate in a total volume of 350 μL/well (i.e. 14.3×10^5 cells/mL). Cells were incubated at 37° C. for two hours to attach to the wells and for anoxic samples to equilibrate. […] The cells were incubated for 1, 2 or 3 hours at 37° C. At the appropriate time the 24 well plate was removed from the incubator/anoxic chamber and placed on ice. The contents of each well was transferred to the microcentrifuge tube kept on ice. 800 μL of acetonitrile (spiked with D6 internal standards of compounds 11 and 20, each 0.5 uM) was added to each of the drug treated wells to allow efficient extraction from the cell monolayer. Then the entire contents (1200 uL=400+800 uL) was vortex mixed and transferred to −80° C. for storage until they were run on the LC-MS/MS system. A similar procedure was followed for the control samples. […]

SKOV3 cells = experiment: Oxic and hypoxic cellular metabolism of prodrug 20; type: in vitro ADME, Human; settings: 10 uM prodrug
Method: as §1

erbB1^T790M = erbB1^T790M (Homo sapiens, UniProt P00533, T790M); experiment: Isolated enzyme inhibition (Invitrogen Z′-LYTE kinase assay); type: biochemical; settings: 10 μM ATP, duplicate
[6] = Chemical stability by HPLC; settings: HPLC after 24 h at 37° C.
H1975 xenografts = experiment: In vivo efficacy in H1975 xenografts; set-up: species or system mice
[7] = Plasma and A431 tumour pharmacokinetics of compounds 42 and 161
[8] = Plasma and tissue pharmacokinetics of prodrug 42 in H1975 tumour bearing mice; type: in vivo; settings: female, NIH-III, mouse, 20 umol/kg, single iv dose of 42 at 20 μmol/kg
Method: Compound 42 was dosed at a nominal low dose of 20 μmol/kg to nine female NIH-III mice bearing H1975 tumour xenografts, as a solution in DMSO/5% dextrose (20:80) via intravenous injection. […] The frozen powders were then collected in pre-weighed microcentrifuge tubes (kept on dry ice). Four volumes of ice cold acetonitrile (containing 0.5 μM D6-161 as an internal standard) was added to each sample to extract the drug from the tissue powder. […] To 10 μL of plasma (collected in EDTA) was added 40 μL of ice cold acetonitrile (containing 0.5 μM D6-161 as an internal standard). The resulting solution was mixed and then centrifuged at 13,000 rpm for 5 min.

in vivo = settings: female, NIH-III nude, mouse, ip, pH 4
[9] = HPLC-MS at 0.95 reducing equivalents
[10] = single ip dose of 20 at 133 umol/kg

T1 sequence (P00533 25-1210): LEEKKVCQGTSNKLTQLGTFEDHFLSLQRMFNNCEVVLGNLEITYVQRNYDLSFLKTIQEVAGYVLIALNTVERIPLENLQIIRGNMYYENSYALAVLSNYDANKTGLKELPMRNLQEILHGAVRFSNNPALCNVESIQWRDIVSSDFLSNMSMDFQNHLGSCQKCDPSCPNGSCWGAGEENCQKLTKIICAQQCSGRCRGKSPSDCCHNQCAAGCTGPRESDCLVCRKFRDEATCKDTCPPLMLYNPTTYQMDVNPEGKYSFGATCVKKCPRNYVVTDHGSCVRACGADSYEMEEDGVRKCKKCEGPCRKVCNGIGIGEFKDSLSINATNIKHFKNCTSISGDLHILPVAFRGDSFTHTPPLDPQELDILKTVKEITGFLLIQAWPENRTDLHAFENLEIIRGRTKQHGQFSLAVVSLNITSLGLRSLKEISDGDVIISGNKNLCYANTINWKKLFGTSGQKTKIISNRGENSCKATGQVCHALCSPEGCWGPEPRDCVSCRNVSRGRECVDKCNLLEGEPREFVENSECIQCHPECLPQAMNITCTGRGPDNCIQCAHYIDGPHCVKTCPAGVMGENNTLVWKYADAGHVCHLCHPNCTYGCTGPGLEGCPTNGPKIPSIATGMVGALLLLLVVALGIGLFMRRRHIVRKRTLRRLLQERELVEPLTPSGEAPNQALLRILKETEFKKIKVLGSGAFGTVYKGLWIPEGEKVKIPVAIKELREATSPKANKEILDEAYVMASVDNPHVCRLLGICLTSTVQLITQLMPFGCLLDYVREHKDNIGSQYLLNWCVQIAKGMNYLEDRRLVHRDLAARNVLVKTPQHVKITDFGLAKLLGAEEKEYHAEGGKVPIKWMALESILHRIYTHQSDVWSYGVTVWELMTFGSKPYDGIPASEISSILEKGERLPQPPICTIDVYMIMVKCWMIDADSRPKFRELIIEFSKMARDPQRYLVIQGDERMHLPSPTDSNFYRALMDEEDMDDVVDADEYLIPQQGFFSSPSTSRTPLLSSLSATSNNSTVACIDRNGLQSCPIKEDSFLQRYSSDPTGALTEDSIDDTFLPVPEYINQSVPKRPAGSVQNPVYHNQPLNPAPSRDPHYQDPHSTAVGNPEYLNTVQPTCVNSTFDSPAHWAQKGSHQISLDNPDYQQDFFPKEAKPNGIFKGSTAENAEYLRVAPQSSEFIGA
Chain of erbB1^T790M (P00533 25-1210 T790M): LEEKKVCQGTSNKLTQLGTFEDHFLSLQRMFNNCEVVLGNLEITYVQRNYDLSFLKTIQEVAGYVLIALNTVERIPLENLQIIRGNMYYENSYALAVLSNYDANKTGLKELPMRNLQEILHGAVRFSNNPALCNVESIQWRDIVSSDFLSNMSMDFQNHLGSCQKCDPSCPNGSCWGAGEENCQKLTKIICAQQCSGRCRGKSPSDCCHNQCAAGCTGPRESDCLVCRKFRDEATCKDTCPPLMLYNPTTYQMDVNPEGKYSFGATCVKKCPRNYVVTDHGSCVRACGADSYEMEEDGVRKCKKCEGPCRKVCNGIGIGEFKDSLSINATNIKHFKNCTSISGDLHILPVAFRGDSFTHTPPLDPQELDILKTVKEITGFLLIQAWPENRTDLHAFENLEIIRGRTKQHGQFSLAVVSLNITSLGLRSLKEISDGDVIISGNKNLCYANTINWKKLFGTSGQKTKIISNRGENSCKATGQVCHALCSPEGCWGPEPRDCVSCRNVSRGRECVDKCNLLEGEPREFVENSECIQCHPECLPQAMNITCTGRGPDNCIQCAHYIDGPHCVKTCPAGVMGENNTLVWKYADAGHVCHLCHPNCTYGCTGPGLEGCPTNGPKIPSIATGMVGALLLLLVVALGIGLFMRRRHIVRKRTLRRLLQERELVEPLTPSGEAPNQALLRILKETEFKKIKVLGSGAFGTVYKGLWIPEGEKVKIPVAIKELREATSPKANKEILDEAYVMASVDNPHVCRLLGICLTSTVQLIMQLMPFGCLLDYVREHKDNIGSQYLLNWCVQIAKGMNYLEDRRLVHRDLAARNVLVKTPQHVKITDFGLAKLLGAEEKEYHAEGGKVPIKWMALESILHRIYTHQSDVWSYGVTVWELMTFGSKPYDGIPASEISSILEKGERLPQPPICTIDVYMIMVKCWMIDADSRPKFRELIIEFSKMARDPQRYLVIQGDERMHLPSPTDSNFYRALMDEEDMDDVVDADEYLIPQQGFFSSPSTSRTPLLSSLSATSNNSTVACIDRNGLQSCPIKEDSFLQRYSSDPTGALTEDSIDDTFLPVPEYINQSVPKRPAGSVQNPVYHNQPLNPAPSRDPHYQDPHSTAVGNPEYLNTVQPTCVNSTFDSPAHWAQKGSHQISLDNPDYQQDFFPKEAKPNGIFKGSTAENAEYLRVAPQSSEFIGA

## Cn1cnc([N+](=O)[O-])c1C[N+](C)(C)C/C=C/C(=O)Nc1ccc2ncnc(Nc3cccc(Br)c3)c2c1.[Br-] [Compound 20, (2E)-4-{[4-(3-bromoanilino)-6-quinazolinyl]amino}-N,N-dimethyl-N-[(1-methyl-4-nitro-1H-imidazol-5-yl)methyl]-4-oxo-2-buten-1-ammonium bromide]
erbB1 [1]
  pIC50: 9.33
[2]; 0.95 reducing equivalents
  Effector release/Prodrug loss: 1.00
[2]; HPLC-MS
  Detection of MNA (methyl nitroaromatic): Yes
[2]; [9]
  % Loss of prodrug: 55%
  % Release of effector: 55%
[2]; steady state radiolysis, HPLC-MS
  release of effector following 1-electron reduction: released effector (compound 11) detected
SKBR3 cells
  SKBR3 Deact.: 49 fold
  SKBR3 HCR: 18.1 fold
SKBR3 cells; 24 hour exposure entirely oxic, read-out: Cellular Growth Inhibition IC50 SKBR3 Oxic
  pIC50: 5.41
SKBR3 cells; first 4 hours anoxic, read-out: Cellular Growth Inhibition IC50 SKBR3 Anoxic
  pIC50: 6.66
SW620 cells
  SW620 Deact.: 18 fold
  SW620 HCR: 3.1 fold
SW620 cells; 24 hour exposure entirely oxic, read-out: Cellular Growth Inhibition IC50 SW620 Oxic
  pIC50: 4.20
SW620 cells; first 4 hours anoxic, read-out: Cellular Growth Inhibition IC50 SW620 Anoxic
  pIC50: 4.69
[3]; prodrug 20, out to 72 h
  stable tumour tissue concentration: ~30 µmol/kg
[3]; prodrug 20 at 133 umol/kg ip, A431 tumour
  tumour AUC0-72h: 2245 µmol·h/kg
[3]; prodrug 20 dosed at 133 umol/kg ip
  plasma AUC0-72h: 2016 µM·h
[3]; [10]
  AUC0-72 hr A431 Tumour, Compound 20: 2245 µM·h
  AUC0-72 hr Plasma, Compound 20: 2016 µM·h
Solubility by HPLC
  solubility: 1112 µM
Compound 11 in plasma after dosing prodrug 20
  effector AUC as share of prodrug AUC: one
Effector (compound 11) in plasma after dosing prodrug
  AUC0-250 min Effector: 2.7 µM·h
plasma, IP, 42% of single dose MTD, predicted from modelled curves
  AUC0-250 min Parent: 279 µM·h
[4]
  rate of release of inhibitor 11: 62 pmol/h
erbB1 [5]
  erbB1 autophosphorylation, cells not washed free of drug: not completely inhibited
A431 cells
  rate of hypoxic metabolism to inhibitor 11: 200 pmol/hour/million cells
SKOV3 cells
  rate of hypoxic metabolism to inhibitor 11: 500 pmol/hour/million cells
erbB1^T790M
  pIC50: 6.23

## Cn1cnc([N+](=O)[O-])c1C[N+](C)(C)C/C=C/C(=O)Nc1cc2c(Nc3ccc(F)c(Br)c3)ncnc2cn1 [Compound 42, (2E)-4-{[4-(3-bromo-4-fluoroanilino)pyrido[3,4-d]pyrimidin-6-yl]amino}-N,N-dimethyl-N-[(1-methyl-4-nitro-1H-imidazol-5-yl)methyl]-4-oxo-2-buten-1-ammonium bromide]
[6]
  Stability PBS (percentage parent remaining): 77%
  Stability Water (percentage parent remaining): 98%
  Stability α-MEM + FCS (5%) (percentage parent remaining): 61%
physchem; aqueous buffer
  solubility: 129 µM
physchem; water
  solubility: > 1160 µM
H1975 xenografts; H1975 xenografts, equitoxic dose 133 (42) and 42.2 (161) μmol/kg/dose, q3dx4, IP
  tumour growth inhibition (TGI): 188%
H1975 xenografts; H1975 xenografts, q3dx4 at respective MTD, IP
  tumour growth inhibition (TGI): 229%
H1975 xenografts; large H1975 xenografts, 75 umol/kg/dose, q3dx8, IP
  tumour growth inhibition (TGI): 154%
H1975 xenografts; large H1975 xenografts, 100 umol/kg/dose, q3dx8, IP
  tumour growth inhibition (TGI): 213%
H1975 xenografts; large H1975 xenografts, 133 umol/kg/dose, q3dx8, IP
  tumour growth inhibition (TGI): 275%
[7]; prodrug 42, out to 72 h
  stable tumour tissue concentration: ~30 µmol/kg
[7]; prodrug 42 at 100 umol/kg ip, A431 tumour
  tumour AUC0-72h: 2821 µmol·h/kg
[7]; ~75% of q3dx4 MTD each
  plasma AUC fold greater than for administration of inhibitor 161: ~27 fold
[8]; H1975 tumour, read-out: AUC0-24 hr H1975 Tumour, 42
  AUC(0-t): 123 µM·h
[8]; liver, read-out: AUC0-24 hr Liver, 42
  AUC(0-t): 256 µM·h
[8]; plasma, read-out: AUC0-24 hr Plasma, 42
  AUC(0-t): 24.7 µM·h
[8]; skin, read-out: AUC0-24 hr Skin, 42
  AUC(0-t): 198 µM·h
In vivo
  MTD: 133 µmol/kg
